Here are results for 49 compounds from patent US9480259B2, “Pyrazolopyrans having herbicidal and pharmaceutical properties” (BASF SE, priority 2012, dated 2016).

For this experiment, the target named is Arabidopsis thaliana SHMT. Put plainly: SHMT activity assay (ED50 SHMT), coupled with N5,N10-CH2-THF dehydrogenase, NADH at 340 nm. It is filed as biochemical. A digest of the protocol:
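His-tagged SHMT purified on Ni-NTA. NADH formation followed at 340 nm for 30 min; ED50 from inhibition of initial velocity.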

[1] abbreviates: inhibition of initial velocity of Arabidopsis thaliana SHMT.
Setting [2] is: Table 2, values given as upper bounds.
Where [3] appears, read: Table 2, Arabidopsis thaliana SHMT enzyme assay, values given as upper bounds.
[4] abbreviates: Arabidopsis thaliana SHMT enzyme assay, values given as upper bounds.

Each structure is given as a SMILES string. Bounds are passed on as bounds.

In the case of `Cc1n[nH]c2c1C(c1ccc(-c3cccc(C(F)(F)F)c3)s1)(C1CC1)C(C#N)=C(N)O2` (stereo not shown) [Compound 4.53], the EC50 – broadly, the concentration that produces a half-maximal response – under setting [1] is < 100 nM.
With `Cc1n[nH]c2c1C(c1ccc(OC(F)(F)F)cc1)(C1CCC1)C(C#N)=C(N)O2` (stereo not shown) [Compound 2.183.], under setting [2], the concentration for a half-maximal effect (EC50) was < 1000 nM.
Take `Cc1n[nH]c2c1C(c1cc(Cl)cc(CCC(=O)O)c1)(C1(F)CC1)C(C#N)=C(N)O2` (stereo not shown) [Compound 2.497]: the EC50 under setting [2] is < 100 nM.
Regarding `CCOc1n[nH]c2c1C(c1cc(Cl)cc(Cl)c1)(C1CCC1)C(C#N)=C(N)O2` (stereo not shown) [Compound 2.387], the concentration giving a half-maximal response (EC50) under setting [3] is < 100 nM.
For `Cc1ccc2cc(C3(C4CCC4)C(C#N)=C(N)Oc4[nH]nc(C)c43)cc(C(F)(F)F)c2n1` (stereo not shown) [Compound 4.19], the half-maximal effective concentration (EC50) under setting [1] was < 10 nM.
In the case of `CCC1(c2ccc(OC(=O)c3ccccc3)c(C)c2)C(C#N)=C(N)Oc2[nH]nc(C)c21` (stereo not shown) [Compound 2.49.], the EC50 under setting [2] is < 1000 nM.
On to `CCC1(c2ccc(Cl)c(Cl)c2)C(C#N)=C(N)Oc2[nH]nc(C)c21` (stereo not shown) [Compound 2.14.], for which the EC50 under setting [2] is < 100 nM.
Take `Cc1n[nH]c2c1C(c1cc(-c3cccc(C(F)(F)F)c3)cs1)(C1CCC1)C(C#N)=C(N)O2` (stereo not shown) [Compound 4.68]: the concentration giving a half-maximal response (EC50) under setting [1] is < 1000 nM.
Same read-out and setting: the value for `Cc1n[nH]c2c1C(c1ccc(-c3cccs3)s1)(C1CCC1)C(C#N)=C(N)O2` (stereo not shown) [Compound 4.1] was < 10 nM.
Take `Cc1n[nH]c2c1C(c1cc(C#N)cc(N3CCCC3=O)c1)(C1(F)CC1)C(C#N)=C(N)O2` (stereo not shown) [Compound 2.452]: the EC50 under setting [2] is < 1000 nM.
Same read-out and setting: the value for `CCC1(c2cc(F)cc(Cl)c2)C(C#N)=C(N)Oc2[nH]nc(C)c21` (stereo not shown) [Compound 2.20.] was < 1000 nM.
On the same count and under the same terms, the value for `CCOC(=O)COc1ccc(-c2cc(C#N)cc(C3(C4CCC4)C(C#N)=C(N)Oc4[nH]nc(C)c43)c2)cc1` (stereo not shown) [Compound 2.536] was < 10 nM.
With `Cc1n[nH]c2c1C(c1ccc(-c3ccco3)s1)(C1CCC1)C(C#N)=C(N)O2` (stereo not shown) [Compound 4.3], the EC50 under setting [1] is < 10 nM.
Regarding `Cc1n[nH]c2c1C(c1cccc(OC(F)(F)C(F)F)c1)(C1CCC1)C(C#N)=C(N)O2` (stereo not shown) [Compound 2.356], under setting [3], the EC50 was < 10 nM.
Take `CCC1(c2cccc(C(F)(F)F)c2)C(C#N)=C(N)Oc2[nH]ncc21` (stereo not shown) [Compound 2.63.]: the 50% effective concentration (EC50) under setting [2] is < 10000 nM.
Regarding `CCOC(=O)CS(=O)(=O)N(C)c1cc(C#N)cc(C2(C3CCC3)C(C#N)=C(N)Oc3[nH]nc(C)c32)c1` (stereo not shown) [Compound 2.719], the EC50 under setting [4] is < 100 nM.
For the compound `Cc1n[nH]c2c1C(c1cc(F)cc(Cl)c1)(C1CCC1)C(C#N)=C(N)O2` (stereo not shown) [Compound 2.157.], the EC50 under setting [2] is < 100 nM.
As for `CCC1(c2ccc3c(c2)C(C)(C)C(C)C3(C)C)C(C#N)=C(N)Oc2[nH]nc(C)c21` (stereo not shown) [Compound 4.71], under setting [1], the EC50 was < 1000 nM.
On the same count and under the same terms, the value for `Cc1n[nH]c2c1C(c1cc3ccccc3o1)(C1CCC1)C(C#N)=C(N)O2` (stereo not shown) [Compound 4.52] was < 100 nM.
As to `CCC1(c2cc(C#N)cc(C(F)(F)F)c2)C(C#N)=C(N)Oc2[nH]nc(C)c21` (racemic) [Compound 2.530], the EC50 under setting [2] is < 10 nM.
The same measure, in the same setting: in the case of `COc1ccc(C2(C3CC3)C(C#N)=C(N)Oc3[nH]nc(C)c32)cc1C(F)(F)F` (stereo not shown) [Compound 2.150.] it was < 100 nM.
For the compound `Cc1n[nH]c2c1C(c1cc(-c3cccs3)cs1)(C1CCC1)C(C#N)=C(N)O2` (stereo not shown) [Compound 4.16], the EC50 under setting [1] was < 10 nM.
For the compound `COc1ccc(C2(C3CCC3)C(C#N)=C(N)Oc3[nH]nc(C)c32)cc1Br` (stereo not shown) [Compound 2.208.], the EC50 under setting [2] was < 10 nM.
Still for that read-out and setting: in the case of `Cc1n[nH]c2c1C(c1ccc(OCc3nnn[nH]3)c(Cl)c1)(C1CCC1)C(C#N)=C(N)O2` (stereo not shown) [Compound 2.638] it was < 10 nM; in that of `CCC1(c2ccc(OS(=O)(=O)c3ccccc3)c(C)c2)C(C#N)=C(N)Oc2[nH]nc(C)c21` (stereo not shown) [Compound 2.58.], < 1000 nM; in that of `COC(=O)c1ccc(-c2cc(C#N)cc(C3(C4CCC4)C(C#N)=C(N)Oc4[nH]nc(C)c43)c2)cc1Cl` (stereo not shown) [Compound 2.546], < 100 nM.
As for `Cc1n[nH]c2c1C(c1cc(C#N)cc(N(C)CC(=O)O)c1)(C1CCC1)C(C#N)=C(N)O2` (stereo not shown) [Compound 2.693], the 50% effective concentration (EC50) under setting [4] was < 100 nM.
Turning to `Cc1n[nH]c2c1C(c1cc(Cl)cc(-c3ccccn3)c1)(C1CCC1)C(C#N)=C(N)O2` (stereo not shown) [Compound 2.318], the EC50 under setting [3] was < 10 nM.
Same read-out and setting: in the case of `N#CC1=C(N)Oc2[nH]ncc2C1(c1cc(C#N)cc(-c2ccccn2)c1)C1CCC1` (stereo not shown) [Compound 2.348] it was < 10 nM.
For `Cc1n[nH]c2c1C(c1cc(Br)cc(N(C)C(=O)Cc3nnn[nH]3)c1)(C1CCC1)C(C#N)=C(N)O2` (stereo not shown) [Compound 2.730], the EC50 under setting [4] was < 10 nM.
For the compound `N#CC1=C(N)Oc2[nH]nc(C(F)F)c2C1(c1cccc(C(F)(F)F)c1)C1CCC1` (stereo not shown) [Compound 2.175.], the EC50 under setting [2] was < 1000 nM.
Still for that read-out and setting: in the case of `CCC1(c2cccc(F)c2)C(C#N)=C(N)Oc2[nH]nc(C)c21` (racemic) [Compound 2.9.] it was < 1000 nM.
Regarding `Cc1n[nH]c2c1C(c1cc(Cl)cc(CCc3nnn[nH]3)c1)(C1CCC1)C(C#N)=C(N)O2` (stereo not shown) [Compound 2.539], under setting [2], the EC50 is < 10 nM.
Consider `Cc1n[nH]c2c1C(c1ccc3c(c1)nnn3C)(C1CCC1)C(C#N)=C(N)O2` (stereo not shown) [Compound 4.49], for which the EC50 under setting [1] is < 100 nM.
With `Cc1n[nH]c2c1C(c1ccc3c(c1)C(F)(F)CCO3)(C1CCC1)C(C#N)=C(N)O2` (stereo not shown) [Compound 4.18], the EC50 under setting [1] was < 10 nM.
Turning to `Cc1n[nH]c2c1C(c1cc(Br)cc(C(F)(F)F)c1)(C1CCC1)C(C#N)=C(N)O2` (stereo not shown) [Compound 2.233], the EC50 under setting [3] is < 10 nM.
As to `Cc1n[nH]c2c1C(c1cc(Cl)c3c(c1)OCCO3)(C1CCC1)C(C#N)=C(N)O2` (stereo not shown) [Compound 4.5], the EC50 under setting [1] is < 10 nM.
For the compound `CCCC1(c2cc(Cl)cc(C#N)c2)C(C#N)=C(N)Oc2[nH]nc(C(F)F)c21` (stereo not shown) [Compound 2.608], under setting [2], the concentration giving a half-maximal response (EC50) was < 10 nM.
On the same count and under the same terms, the value for `CCc1n[nH]c2c1C(c1cc(C#N)cc(C#N)c1)(C(C)C)C(C#N)=C(N)O2` (stereo not shown) [Compound 2.520] was < 10 nM.
Regarding `Cc1n[nH]c2c1C(c1ccc(CCC#N)c(-c3nnn[nH]3)c1)(C(C)C)C(C#N)=C(N)O2` (stereo not shown) [Compound 2.736], the EC50 under setting [4] was < 1000 nM.
Take `CCCC1(c2cccc(Cl)c2)C(C#N)=C(N)Oc2[nH]nc(C)c21` (stereo not shown) [Compound 2.94.]: the 50% effective concentration (EC50) under setting [2] is < 1000 nM.
On the same count and under the same terms, in the case of `Cc1n[nH]c2c1C(c1cc(O)cc(C#N)c1)(C1CCC1)C(C#N)=C(N)O2` (stereo not shown) [Compound 2.626] it was < 100 nM.
As for `Cc1n[nH]c2c1C(c1ccc(CCc3nnn[nH]3)c(C#N)c1)(C(C)C)C(C#N)=C(N)O2` (stereo not shown) [Compound 2.734], the EC50 under setting [4] is < 100 nM.
Turning to `Cc1n[nH]c2c1C(c1cc(C#N)cc(-c3cccnc3)c1)(C1CCC1)C(C#N)=C(N)O2` (stereo not shown) [Compound 2.350], under setting [3], the EC50 was < 10 nM.
Regarding `N#CC1=C(N)Oc2[nH]ncc2C1(c1cc(Br)cc(C(F)(F)F)c1)C1CCC1` (stereo not shown) [Compound 2.259], the EC50 under setting [3] is < 10 nM.
`Cc1n[nH]c2c1C(CC(C)C)(c1cc(Cl)cc(Cl)c1)C(C#N)=C(N)O2` (stereo not shown) [Compound 2.125.]: the EC50 under setting [2] is < 100 nM.
`Cc1n[nH]c2c1C(c1cc(C#N)cc(-c3ccc(OCC(=O)O)cc3)c1)(C1CCC1)C(C#N)=C(N)O2` (stereo not shown) [Compound 2.538]: the EC50 under setting [2] is < 10 nM.
Turning to `Cc1n[nH]c2c1C(c1ccc(-c3ccccc3F)s1)(C1CCC1)C(C#N)=C(N)O2` (stereo not shown) [Compound 4.17], the 50% effective concentration (EC50) under setting [1] was < 10 nM.
Consider `Cc1n[nH]c2c1C(c1cc(Cl)cc(Cl)c1)(C1(F)CCC1)C(C#N)=C(N)O2` (stereo not shown) [Compound 2.180.], for which the EC50 under setting [2] is < 100 nM.
